Assay results published in the supplement of paper PMC10307832.

What was measured:
Experiment in all cases: relative viability (nuclei count vs DMSO), 5 days (fraction); higher = more cells survive
[1] = compound: N#CC[C@H](C1CCCC1)n1cc(-c2ncnc3[nH]ccc23)cn1 [Ruxolitinib] + NC(=O)Nc1cc(-c2cccc(F)c2)sc1C(=O)N[C@H]1CCCNC1 [AZD7762] (partner 0.2 µM)
Procedure, shortened: (§1)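 Lung cancer cell lines in 1536-well plates got either a single drug or a fixed anchor-drug dose together with five library-drug doses (not always all listed) in √10 steps, by pin tool, on the day after seeding. Nuclei were counted after 5 days, and relative viability is the treated-to-vehicle ratio of nuclei counts. Values are medians of duplicate plates.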

[2] = compound: N#CC[C@H](C1CCCC1)n1cc(-c2ncnc3[nH]ccc23)cn1 [Ruxolitinib] + O=C(CCCCCCC(=O)Nc1ccccc1)NO [Vorinostat] (partner 1 µM)
Procedure, shortened: as §1

[3] = compound: N#CC[C@H](C1CCCC1)n1cc(-c2ncnc3[nH]ccc23)cn1 [Ruxolitinib] + Nc1ncn([C@H]2C[C@H](O)[C@@H](CO)O2)c(=O)n1 [Decitabine] (partner 2 µM)
Procedure, shortened: as §1

[4] = compound: CS(=O)(=O)c1ccc(C(=O)Nc2ccc(Cl)c(-c3ccccn3)c2)c(Cl)c1 [Vismodegib] + CC1(C)CCC(c2ccc(Cl)cc2)=C(CN2CCN(c3ccc(C(=O)NS(=O)(=O)c4ccc(N[C@H](CCN5CCOCC5)CSc5ccccc5)c(S(=O)(=O)C(F)(F)F)c4)cc3)CC2)C1 [Navitoclax] (partner 0.5 µM)
Procedure, shortened: as §1

Cell Line	relative viability ([1]; first compound 0.08 µM)	relative viability ([1]; first compound 0.253 µM)	relative viability ([1]; first compound 0.8 µM)	relative viability ([1]; first compound 2.53 µM)	relative viability ([1]; first compound 8 µM)	relative viability ([2]; first compound 0.08 µM)	relative viability ([2]; first compound 0.253 µM)	relative viability ([2]; first compound 0.8 µM)	relative viability ([2]; first compound 2.53 µM)	relative viability ([2]; first compound 8 µM)	relative viability ([3]; first compound 0.08 µM)	relative viability ([3]; first compound 0.253 µM)	relative viability ([3]; first compound 0.8 µM)	relative viability ([3]; first compound 2.53 µM)	relative viability ([3]; first compound 8 µM)	relative viability ([4]; first compound 0.08 µM)	relative viability ([4]; first compound 0.253 µM)	relative viability ([4]; first compound 0.8 µM)	relative viability ([4]; first compound 2.53 µM)	relative viability ([4]; first compound 8 µM)
LCLC-103H	0.829	0.783	0.798	0.836	0.614	0.89	0.795	0.806	0.735	0.675	0.83	0.775	0.802	0.656	0.658					
NCI-H2009						0.715	0.71	0.722	0.631	0.507	0.361	0.375	0.364	0.369	0.317	1.15	1.12	1.2	1.17	1.17
SW 900	0.656	0.525	0.722	0.891	0.833	0.587	0.746	0.774	0.707	0.881	0.426	0.495	0.475	0.445	0.41					
NCI-H1703	0.127	0.126	0.143		0.115											1.02	1.05	0.986	1.23	1.47
CAL-12T	0.623	0.688	0.694	0.732	0.608	0.86	0.693	0.848	0.653	0.69						1.21	0.965	1.33	1.23	1.24
SK-LU-1						0.763	0.856	0.747	0.805	0.53	0.547	0.693	0.755	0.522	0.622	0.831	0.695	0.834	0.736	0.936
NCI-H358	0.5	0.653	0.504	0.404	0.445	0.624	0.645	0.673	0.509	0.417	0.226	0.202	0.213	0.169	0.194					
EBC-1																0.412	0.39	0.436	0.397	0.643
NCI-H661						0.833	0.822	0.839	0.792	0.802	0.547	0.548	0.588	0.484	0.505					
SW 1573						0.927	1.08	0.995	0.584	0.727	0.547	0.512	0.667	0.377	0.518	0.808	0.94	0.886		1.04
